Assay results as given in US11459334B2, “Substituted pyrrolo[2,1-f][1,2,4]triazines as KIT and/or PDGFR-α inhibitors” (SHENZHEN TARGETRX, INC., priority 2018, dated 2022).

Assays:
Ba/F3 Kit D816V = Ba/F3 Kit D816V (Homo sapiens, UniProt P10721, D816V, cells depend on it); conditions: read-out: Cell IC50 (nM) BaF3/Kit(D816V); 72 hours, CTG
[1] = Metabolic stability evaluation, human liver microsome experiment; type: in vitro ADME; conditions: human liver microsomes, pH 7.4, 1 μM compound, 0.5 mg/mL protein; for microsomal CLint at 1 μM: read-out: CL human liver microsome experiment; for half-life at 1 μM: read-out: T½ human liver microsome experiment
Experimental: (§1) Microsome experiment: human liver microsome: 0.5 mg/mL, Xenotech; rat liver microsome: 0.5 mg/mL, Xenotech; coenzyme (NADPH/NADH): 1 mM, Sigma Life Science; magnesium chloride: 5 mM, 100 mM phosphate buffer (pH 7.4).
(§2) Preparation of stock solution: a certain amount of the example compound powder and control compound powder were accurately weighed, and respectively dissolved to 5 mM with DMSO.
(§3) Preparation of phosphate buffer (100 mM, pH7.4): 150 mL of 0.5M potassium dihydrogen phosphate and 700 mL of 0.5M dipotassium hydrogen phosphate prepared beforehand were mixed, with pH of the mixture adjusted to 7.4 with 0.5M dipotassium hydrogen phosphate solution. Before use, the mixture was diluted by 5 folds with ultrapure water and magnesium chloride was added to obtain the phosphate buffer (100 mM), which contains 100 mM potassium phosphate, 3.3 mM magnesium chloride, and has pH 7.4.
(§4) NADPH regeneration system solution (containing 6.5 mM NADP, 16.5 mM G-6-P, 3 U/mL G-6-P D, 3.3 mM magnesium chloride) was prepared, and placed on wet ice before use.
(§5) Preparation of stop solution: a solution of 50 ng/mL propranolol hydrochloride and 200 ng/mL tolbutamide (internal standard) in acetonitrile. 25057.5 μL of phosphate buffer (pH 7.4) was taken into a 50 mL centrifuge tube, added with 812.5 μL of human liver microsome, and mixed well to obtain a liver microsome diluent with a protein concentration of 0.625 mg/mL. 25057.5 μL of phosphate buffer (pH 7.4) was taken into a 50 mL centrifuge tube, added with 812.5 μL of SD rat liver microsome, and mixed well to obtain a liver microsome diluent with a protein concentration of 0.625 mg/mL.
(§6) Incubation of the samples: the stock solutions of the corresponding compounds were respectively diluted to 0.25 mM with an aqueous solution containing 70% acetonitrile to obtain working solutions for later use. 398 μL of human liver microsome and rat liver microsome diluents were respectively taken and added to a 96-well incubation plate (N=2), added with 2 μL of 0.25 mM working solution respectively, and mixed well.
(§7) Determination of metabolic stability: 300 μL of pre-cooled stop solution was added to each well of a 96-well deep-well plate, and the plate was placed on ice as a stop plate. The 96-well incubation plate and the NADPH regeneration system were placed in a 37° C. water bath, shaken at 100 rpm, and pre-incubated for 5 minutes. 80 μL of incubation solution was taken out of each well of the incubation plate and added to the stop plate, mixed well, and supplemented with 20 μL of NADPH regeneration system solution to obtain the 0 min sample. Then 80 μL of NADPH regeneration system solution was added to each well of the incubation plate to initiate the reaction and start timing. The reaction concentration of the corresponding compound was 1 μM, and the protein concentration was 0.5 mg/mL. At 10, 30, and 90 minutes of reaction, 100 μL of the reaction solution was taken and added to the stop plate, and vortexed for 3 minutes to stop the reaction. The stop plate was centrifuged at 5000×g for 10 min at 4° C. 100 μL of supernatant was taken to a 96-well plate pre-added with 100 μL of distilled water, mixed well, and subjected to sample analysis by LC-MS/MS.
(§8) Data analysis: the peak areas of the corresponding compound and internal standard were detected through the LC-MS/MS system, and the ratio of the peak area of the compound to the internal standard was calculated.

[2] = Metabolic stability evaluation, rat liver microsome experiment; type: in vitro ADME; conditions: SD, rat liver microsomes, pH 7.4, 1 μM compound, 0.5 mg/mL protein; for microsomal CLint at 1 μM: read-out: CL rat liver microsome experiment; for half-life at 1 μM: read-out: T½ rat liver microsome experiment
Experimental: as §1, §2, §3, §4, §5, §6, §7, §8

| SMILES | GI50 (Ba/F3 Kit D816V) | microsomal CLint at 1 μM [1] | half-life at 1 μM [1] | microsomal CLint at 1 μM [2] | half-life at 1 μM [2] |
| --- | --- | --- | --- | --- | --- |
| [2H]C([2H])([2H])n1cc(-c2cc3c(N4CCN(c5ncc([C@@](N)(c6ccc(F)cc6)C([2H])([2H])[2H])cn5)CC4)ncnn3c2)cn1 [Compound T-3-S, (S)-1-(4-fluorophenyl)-1-(2-(4-(6-(1-(methyl-d3)-1H-pyrazol-4-yl)pyrrolo[2,1-f][1,2,4]triazin-4-yl)piperazin-1-yl)pyrimidin-5-yl)ethan-2,2,2-d3-1-amine] | 1 to 50 nM | 13 µL/min/mg | 107 min | 15.6 µL/min/mg | 89.1 min |
| [2H]C1([2H])N(c2ncc([C@](C)(N)c3ccc(F)cc3)cn2)C([2H])([2H])C([2H])([2H])N(c2ncnn3cc(-c4cnn(C)c4)cc23)C1([2H])[2H] [Compound T-4-R, (R)-1-(4-fluorophenyl)-1-(2-(4-(6-(1-methyl-1H-pyrazol-4-yl)pyrrolo[2,1-f][1,2,4]triazin-4-yl)piperazin-1-yl-2,2,3,3,5,5,6,6-d8)pyrimidin-5-yl)ethylamine] |  | 26 µL/min/mg | 53.3 min | 27 µL/min/mg | 51.4 min |
| [2H]C([2H])([2H])n1cc(-c2cc3c(N4CCN(c5ncc([C@](N)(c6ccc(F)cc6)C([2H])([2H])[2H])cn5)CC4)ncnn3c2)cn1 [Compound T-3-R, (R)-1-(4-fluorophenyl)-1-(2-(4-(6-(1-(methyl-d3)-1H-pyrazol-4-yl)pyrrolo[2,1-f][1,2,4]triazin-4-yl)piperazin-1-yl)pyrimidin-5-yl)ethan-2,2,2-d3-1-amine] |  | 27 µL/min/mg | 51.3 min | 37.2 µL/min/mg | 37.3 min |
| [2H]C([2H])([2H])n1cc(-c2cc3c(N4C([2H])([2H])C([2H])([2H])N(c5ncc([C@@](C)(N)c6ccc(F)cc6)cn5)C([2H])([2H])C4([2H])[2H])ncnn3c2)cn1 [Compound T-5-S, (S)-1-(4-fluorophenyl)-1-(2-(4-(6-(1-(methyl-d3)-1H-pyrazol-4-yl)pyrrolo[2,1-f][1,2,4]triazin-4-yl)piperazin-1-yl-2,2,3,3,5,5,6,6-d8)pyrimidin-5-yl)ethylamine] | 1 to 50 nM |  |  |  |  |
| Cn1cc(-c2cc3c(N4CCN(c5ncc([C@](C)(N)c6ccc(F)cc6)cn5)CC4)ncnn3c2)cn1 [Compound A, (R)-1-(4-fluorophenyl)-1-(2-(4-(6-(1-methyl-1H-pyrazol-4-yl)pyrrolo[2,1-f][1,2,4]triazin-4-yl)piperazin-1-yl)pyrimidin-5-yl)ethan-1-amine, reference compound] |  | 28.8 µL/min/mg | 48.1 min | 41.5 µL/min/mg | 33.4 min |
| [2H]C([2H])([2H])n1cc(-c2cc3c(N4CCN(c5ncc([C@@](C)(N)c6ccc(F)cc6)cn5)CC4)ncnn3c2)cn1 [Compound T-1-S, (S)-1-(4-fluorophenyl)-1-(2-(4-(6-(1-(methyl-d3)-1H-pyrazol-4-yl)pyrrolo[2,1-f][1,2,4]triazin-4-yl)piperazin-1-yl)pyrimidin-5-yl)ethylamine] | 1 to 50 nM | 15.6 µL/min/mg | 88.6 min |  |  |
| [2H]C1([2H])N(c2ncc([C@@](C)(N)c3ccc(F)cc3)cn2)C([2H])([2H])C([2H])([2H])N(c2ncnn3cc(-c4cnn(C)c4)cc23)C1([2H])[2H] [Compound T-4-S, (S)-1-(4-fluorophenyl)-1-(2-(4-(6-(1-methyl-1H-pyrazol-4-yl)pyrrolo[2,1-f][1,2,4]triazin-4-yl)piperazin-1-yl-2,2,3,3,5,5,6,6-d8)pyrimidin-5-yl)ethylamine] | 1 to 50 nM | 15.3 µL/min/mg | 90.5 min | 17.1 µL/min/mg | 81.1 min |
| [2H]C([2H])([2H])n1cc(-c2cc3c(N4C([2H])([2H])C([2H])([2H])N(c5ncc([C@@](N)(c6ccc(F)cc6)C([2H])([2H])[2H])cn5)C([2H])([2H])C4([2H])[2H])ncnn3c2)cn1 [Compound T-7-S, (S)-1-(4-fluorophenyl)-1-(2-(4-(6-(1-(methyl-d3)-1H-pyrazol-4-yl)pyrrolo[2,1-f][1,2,4]triazin-4-yl)piperazin-1-yl-2,2,3,3,5,5,6,6-d8)pyrimidin-5-yl)ethan-2,2,2-d3-1-amine] | 1 to 50 nM |  |  |  |  |
| [2H]C1([2H])N(c2ncc([C@@](N)(c3ccc(F)cc3)C([2H])([2H])[2H])cn2)C([2H])([2H])C([2H])([2H])N(c2ncnn3cc(-c4cnn(C)c4)cc23)C1([2H])[2H] [Compound T-6-S, (S)-1-(4-fluorophenyl)-1-(2-(4-(6-(1-methyl-1H-pyrazol-4-yl)pyrrolo[2,1-f][1,2,4]triazin-4-yl)piperazin-1-yl-2,2,3,3,5,5,6,6-d8)pyrimidin-5-yl)ethan-2,2,2-d3-1-amine] | 1 to 50 nM | 13.1 µL/min/mg | 105 min | 15.5 µL/min/mg | 89.4 min |
| [2H]C([2H])([2H])[C@](N)(c1ccc(F)cc1)c1cnc(N2CCN(c3ncnn4cc(-c5cnn(C)c5)cc34)CC2)nc1 [Compound T-2-S, (S)-1-(4-fluorophenyl)-1-(2-(4-(6-(1-methyl-1H-pyrazol-4-yl)pyrrolo[2,1-f][1,2,4]triazin-4-yl)piperazin-1-yl)pyrimidin-5-yl)ethan-2,2,2-d3-1-amine] | 1 to 50 nM |  |  |  |  |
| [2H]C1([2H])N(c2ncc([C@](N)(c3ccc(F)cc3)C([2H])([2H])[2H])cn2)C([2H])([2H])C([2H])([2H])N(c2ncnn3cc(-c4cnn(C)c4)cc23)C1([2H])[2H] [Compound T-6-R, (R)-1-(4-fluorophenyl)-1-(2-(4-(6-(1-methyl-1H-pyrazol-4-yl)pyrrolo[2,1-f][1,2,4]triazin-4-yl)piperazin-1-yl-2,2,3,3,5,5,6,6-d8)pyrimidin-5-yl)ethan-2,2,2-d3-1-amine] |  | 24.2 µL/min/mg | 57.3 min | 38.6 µL/min/mg | 35.9 min |
| Cn1cc(-c2cc3c(N4CCN(c5ncc([C@@](C)(N)c6ccc(F)cc6)cn5)CC4)ncnn3c2)cn1 [Avapritinib, (S)-1-(4-fluorophenyl)-1-(2-(4-(6-(1-methyl-1H-pyrazol-4-yl)pyrrolo[2,1-f][1,2,4]triazin-4-yl)piperazin-1-yl)pyrimidin-5-yl)ethylamine, reference compound] | 1 to 50 nM | 15.8 µL/min/mg | 87.6 min | 24.6 µL/min/mg | 56.3 min |
